Reference: PubChem BioAssay (NCI)
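96-well plates; 48 h exposure; 5 concentrations. Endpoints by linear interpolation between flanking doses. Not reached: highest tested concentration assigned. TGI marks complete inhibition of growth.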 Where a SMILES comes first, the peptide text is derived from it. The star is where a group is joined. Fmoc = O=C(OCC1c2ccccc2-c2ccccc21)*; Boc = CC(C)(C)OC(=O)*

How the values were obtained:
Test in all cases: DTP human tumour cell line panel, 48 h
HCT-116 colon = tested on: HCT-116 colon
COLO 205 colon = tested on: COLO 205 colon
TK-10 renal = tested on: TK-10 renal
EKVX NSCLC = tested on: EKVX NSCLC
MDA-MB-231 breast = tested on: MDA-MB-231 breast
CCRF-CEM leukemia = tested on: CCRF-CEM leukemia
NCI-H226 lung = tested on: NCI-H226 lung
ACHN renal = tested on: ACHN renal
SK-MEL-5 melanoma = tested on: SK-MEL-5 melanoma
OVCAR-8 ovarian = tested on: OVCAR-8 ovarian
M14 melanoma = tested on: M14 melanoma
MALME-3M melanoma = tested on: MALME-3M melanoma
HCT-15 colon = tested on: HCT-15 colon
SW-620 colon = tested on: SW-620 colon
UACC-62 melanoma = tested on: UACC-62 melanoma
KM12 colon = tested on: KM12 colon
NCI-H460 lung = tested on: NCI-H460 lung
SN12C renal = tested on: SN12C renal
SR leukemia = tested on: SR leukemia

With `CCN(CC)c1ccc2cc(-c3csc(-c4ccc(N(C)C)cc4)n3)c(=O)oc2c1` the TGI (HCT-116 colon) was over 100 µM, the TGI (COLO 205 colon) was over 100 µM and the TGI (TK-10 renal) was over 100 µM. It also gave a TGI (EKVX NSCLC) of over 100 µM, a TGI (MDA-MB-231 breast) of over 100 µM and a TGI (CCRF-CEM leukemia) of over 100 µM. The TGI (NCI-H226 lung) was over 100 µM, the TGI (ACHN renal) was over 100 µM and the TGI (SK-MEL-5 melanoma) was over 100 µM. It also gave a TGI (OVCAR-8 ovarian) of over 100 µM, a TGI (M14 melanoma) of over 100 µM and a TGI (MALME-3M melanoma) of over 100 µM. For the same molecule, the TGI (HCT-15 colon) was over 100 µM, the TGI (SW-620 colon) was over 100 µM and the TGI (UACC-62 melanoma) was over 100 µM. It also gave a TGI (KM12 colon) of over 100 µM, a TGI (NCI-H460 lung) of over 100 µM and a TGI (SN12C renal) of over 100 µM. It also gave a TGI (SR leukemia) of over 100 µM.

`CC(C)(C)OC(=O)NCCCCC(NC(=O)C(Cc1c[nH]c2ccccc12)NC(=O)OCC1c2ccccc2-c2ccccc21)C(=O)O` (stereo not drawn) (Fmoc-Trp-Lys(Boc)-OH; configuration not given here) was tested, and the TGI (HCT-116 colon) was over 100 µM, the TGI (COLO 205 colon) was over 100 µM and the TGI (TK-10 renal) was over 100 µM. For the same molecule, the TGI (EKVX NSCLC) was over 100 µM, the TGI (MDA-MB-231 breast) was 67.9 µM and the TGI (CCRF-CEM leukemia) was 61 µM. For the same molecule, the TGI (NCI-H226 lung) was over 100 µM, the TGI (ACHN renal) was over 100 µM and the TGI (SK-MEL-5 melanoma) was over 100 µM. The TGI (OVCAR-8 ovarian) was over 100 µM, the TGI (M14 melanoma) was over 100 µM and the TGI (MALME-3M melanoma) was over 100 µM. It also gave a TGI (HCT-15 colon) of over 100 µM, a TGI (SW-620 colon) of over 100 µM and a TGI (UACC-62 melanoma) of 42.4 µM. The TGI (KM12 colon) was over 100 µM, the TGI (NCI-H460 lung) was over 100 µM and the TGI (SN12C renal) was over 100 µM. For the same molecule, the TGI (SR leukemia) was 59.3 µM.

Work on `COc1ccc(-c2cc(-c3ccccc3)nc(N)n2)c(O)c1` yielded a TGI (HCT-116 colon) of over 100 µM, a TGI (COLO 205 colon) of over 100 µM and a TGI (TK-10 renal) of over 100 µM. The TGI (EKVX NSCLC) was over 100 µM, the TGI (MDA-MB-231 breast) was over 100 µM and the TGI (CCRF-CEM leukemia) was over 100 µM. For the same molecule, the TGI (NCI-H226 lung) was over 100 µM, the TGI (ACHN renal) was over 100 µM and the TGI (SK-MEL-5 melanoma) was over 100 µM. For the same molecule, the TGI (OVCAR-8 ovarian) was over 100 µM, the TGI (M14 melanoma) was over 100 µM and the TGI (MALME-3M melanoma) was over 100 µM. For the same molecule, the TGI (HCT-15 colon) was over 100 µM, the TGI (SW-620 colon) was over 100 µM and the TGI (UACC-62 melanoma) was over 100 µM. It also gave a TGI (KM12 colon) of over 100 µM, a TGI (NCI-H460 lung) of over 100 µM and a TGI (SN12C renal) of over 100 µM. The TGI (SR leukemia) was over 26.2 µM.

In the case of `CC(=O)NC1=CC(=O)C=C(Cl)C1=O`, the TGI (HCT-116 colon) is reported as over 100 µM, the TGI (COLO 205 colon) is reported as over 100 µM and the TGI (TK-10 renal) is reported as over 100 µM. For the same molecule, the TGI (EKVX NSCLC) was over 100 µM, the TGI (MDA-MB-231 breast) was over 100 µM and the TGI (CCRF-CEM leukemia) was 57.8 µM. For the same molecule, the TGI (NCI-H226 lung) was over 100 µM, the TGI (ACHN renal) was over 100 µM and the TGI (SK-MEL-5 melanoma) was over 100 µM. It also gave a TGI (OVCAR-8 ovarian) of over 100 µM, a TGI (M14 melanoma) of over 100 µM and a TGI (MALME-3M melanoma) of 66 µM. The TGI (HCT-15 colon) was over 100 µM, the TGI (SW-620 colon) was 37 µM and the TGI (UACC-62 melanoma) was over 100 µM. It also gave a TGI (KM12 colon) of over 100 µM, a TGI (NCI-H460 lung) of over 100 µM and a TGI (SN12C renal) of over 100 µM. The TGI (SR leukemia) was 48.3 µM.

For `Cc1ccc(S(=O)(=O)N/N=C2\CC3C4CCC3C2C4)cc1` (stereo not drawn), the TGI (HCT-116 colon) was over 100 µM, the TGI (COLO 205 colon) was over 100 µM and the TGI (TK-10 renal) was over 100 µM. For the same molecule, the TGI (EKVX NSCLC) was over 100 µM, the TGI (MDA-MB-231 breast) was over 100 µM and the TGI (CCRF-CEM leukemia) was over 100 µM. For the same molecule, the TGI (NCI-H226 lung) was over 100 µM, the TGI (ACHN renal) was over 100 µM and the TGI (SK-MEL-5 melanoma) was over 100 µM. It also gave a TGI (OVCAR-8 ovarian) of over 100 µM, a TGI (M14 melanoma) of over 100 µM and a TGI (MALME-3M melanoma) of over 100 µM. It also gave a TGI (HCT-15 colon) of over 100 µM, a TGI (SW-620 colon) of over 100 µM and a TGI (UACC-62 melanoma) of over 100 µM. The TGI (KM12 colon) was over 100 µM, the TGI (NCI-H460 lung) was over 100 µM and the TGI (SN12C renal) was over 100 µM. For the same molecule, the TGI (SR leukemia) was over 100 µM.

`Cc1ccc2nnc(NS(=O)(=O)c3cc(C)c(Cl)cc3S)n2n1` showed a TGI (HCT-116 colon) of over 100 µM, a TGI (COLO 205 colon) of over 100 µM and a TGI (TK-10 renal) of over 100 µM. The TGI (EKVX NSCLC) was over 100 µM, the TGI (MDA-MB-231 breast) was over 100 µM and the TGI (CCRF-CEM leukemia) was over 100 µM. The TGI (NCI-H226 lung) was over 100 µM, the TGI (ACHN renal) was over 100 µM and the TGI (SK-MEL-5 melanoma) was over 100 µM. The TGI (OVCAR-8 ovarian) was over 100 µM, the TGI (M14 melanoma) was over 100 µM and the TGI (MALME-3M melanoma) was over 100 µM. It also gave a TGI (HCT-15 colon) of over 100 µM, a TGI (SW-620 colon) of over 100 µM and a TGI (UACC-62 melanoma) of over 100 µM. The TGI (KM12 colon) was over 100 µM, the TGI (NCI-H460 lung) was over 100 µM and the TGI (SN12C renal) was over 100 µM. For the same molecule, the TGI (SR leukemia) was over 100 µM.

`C[Si](C)(C)C#CCOC=C1CC1` gave a TGI (HCT-116 colon) of over 100 µM, a TGI (COLO 205 colon) of over 100 µM and a TGI (TK-10 renal) of over 100 µM. It also gave a TGI (EKVX NSCLC) of over 100 µM, a TGI (MDA-MB-231 breast) of over 100 µM and a TGI (CCRF-CEM leukemia) of over 100 µM. The TGI (NCI-H226 lung) was over 100 µM, the TGI (ACHN renal) was over 100 µM and the TGI (SK-MEL-5 melanoma) was over 100 µM. It also gave a TGI (OVCAR-8 ovarian) of over 100 µM, a TGI (M14 melanoma) of over 100 µM and a TGI (MALME-3M melanoma) of over 100 µM. The TGI (HCT-15 colon) was over 100 µM, the TGI (SW-620 colon) was over 100 µM and the TGI (UACC-62 melanoma) was over 100 µM. For the same molecule, the TGI (KM12 colon) was over 100 µM, the TGI (NCI-H460 lung) was over 100 µM and the TGI (SN12C renal) was over 100 µM. It also gave a TGI (SR leukemia) of over 100 µM.
